Where “and” joins values, the source holds several entries; their conditions need not be identical. Equal entries are not always repeated. Entries after “also recorded” stand apart in the source; their conditions may differ. Marks after values point to notes of the source that are not given here.
Tests used:
α3β3γ2 GABAA receptor [1] = molecular target: T1, α3β3γ2 GABAA receptor (Rattus norvegicus, UniProt P20236+P63079); assay type: cell-based; conditions: 1 mM compound co-applied with approx. GABA EC20–25
[2] = tested on: GABA recognition site (GABAA receptors) in native cortical membranes; assay: [3H]muscimol binding, rat cortical membranes; conditions: for Inhibition of muscimol binding at 100 μM (criterion for full binding analysis): cortical and cerebellar membranes (tissue not given); for pseudo-Hill coefficient η, cortex: against 6 nM [3H]muscimol, mean ± S.E.M.
[3] = tested on: GABA recognition site (GABAA receptors) in native cerebellar membranes; assay: [3H]muscimol binding, rat cerebellar membranes; conditions: for pseudo-Hill coefficient η, cerebellum: against 6 nM [3H]muscimol, mean ± S.E.M.
α1β3γ2 GABAA receptor [4] = molecular target: T2, α1β3γ2 GABAA receptor (Rattus norvegicus, UniProt P62813+P63079); conditions: for Current induced by compound alone, % of maximal GABA-induced current: 1 mM compound
α4β3γ2 GABAA receptor = α4β3γ2 GABAA receptor (Rattus norvegicus, UniProt P28471+P63079); conditions: for Current induced by compound alone, % of maximal GABA-induced current: 1 mM compound
α1R66Cβ2 GABAA receptor = α1R66Cβ2 GABAA receptor (Rattus norvegicus, UniProt P62813+P63138, R93C)
α3β3γ2 GABAA receptor [5] = molecular target: T1, α3β3γ2 GABAA receptor
α5β3γ2 GABAA receptor = α5β3γ2 GABAA receptor (Rattus norvegicus, UniProt P19969+P63079)
α1β2 wt GABAA receptor [6] = molecular target: T3, α1β2 wt GABAA receptor (Rattus norvegicus, UniProt P62813+P63138); assay type: cell-based
α1F64Cβ2 GABAA receptor [7] = molecular target: T4, α1F64Cβ2 GABAA receptor (Rattus norvegicus, UniProt P62813+P63138, F91C); assay type: cell-based
α1S68Cβ2 GABAA receptor = α1S68Cβ2 GABAA receptor (Rattus norvegicus, UniProt P62813+P63138, S95C); assay type: cell-based; conditions: read-out: Inhibition of the EC20 GABA current
α1β2 wt GABAA receptor [8] = molecular target: T3, α1β2 wt GABAA receptor; assay: Cysteine modification by MTS reagent, oocyte voltage clamp, wt; assay type: cell-based; conditions: data not shown
α1F64Cβ2 GABAA receptor [9] = molecular target: T4, α1F64Cβ2 GABAA receptor
α1β3γ2 GABAA receptor [10] = molecular target: T2, α1β3γ2 GABAA receptor; assay type: cell-based; conditions: 1 mM compound co-applied with approx. GABA EC20–25
[11] = read-out: Inhibition of the EC20 GABA current

`Cl.Oc1nnc(C2CCNCC2)o1` [5a, 5-Piperidin-4-yl-3H-[1,3,4]oxadiazol-2-one Hydrochloride] was tested, and the “Potentiation of GABA-induced current” value (α3β3γ2 GABAA receptor [1]) was 22 ± 11%, the “Inhibition of muscimol binding at 100 μM (criterion for full binding analysis)” value (from here on “Inhibition of muscimol binding at 100 μM”) [2] was “at least 30%” and the “pseudo-Hill coefficient η, cortex” value [2] was 0.86 ± 0.10. For the same molecule, the “pseudo-Hill coefficient η, cerebellum” value [3] was 0.79 ± 0.06, the “Current induced by compound alone, % of maximal GABA-induced current” value (“Current induced by compound alone, %” below) (α1β3γ2 GABAA receptor [4]) was “less than 10%” and the “Current induced by compound alone, %” value (α4β3γ2 GABAA receptor) was “less than 10%”. The “Effect of repeated application on subsequent GABA currents” value (α1R66Cβ2 GABAA receptor; repeated 10 s applications of 30 mM, α1R66Cβ2) was “did not decrease the subsequent GABA test currents; also recorded: did not irreversible alter the subsequent GABA currents”.

For `Cl.NCc1nnc(O)o1` [5d, 5-Aminomethyl-3H-[1,3,4]oxadiazol-2-one Hydrochloride], the “Inhibition of muscimol binding at 100 μM” value [2] was “at least 30%”, the “pseudo-Hill coefficient η, cortex” value [2] was 1.12 ± 0.13 and the “pseudo-Hill coefficient η, cerebellum” value [3] was 0.90 ± 0.21. For the same molecule, the “Hill coefficient (direct activation)” value (α1β3γ2 GABAA receptor [4]) was 0.99 ± 0.05, the EC50 (α3β3γ2 GABAA receptor [5]) was 1000 µM and the “Hill coefficient (direct activation)” value (α3β3γ2 GABAA receptor [5]; α3β3γ2, value of an extrapolated dose-response curve) was 0.81 ^*. The “Hill coefficient (direct activation)” value (α4β3γ2 GABAA receptor) was 1.56 ± 0.11 and the “Hill coefficient (direct activation)” value (α5β3γ2 GABAA receptor) was 1.31 ± 0.12.

With `Cl.NCCc1nnc(O)o1` [5g] the “Inhibition of muscimol binding at 100 μM” value [2] was “at least 30%”, the “pseudo-Hill coefficient η, cortex” value [2] was 0.63 and 0.63 ± 0.06 and the “pseudo-Hill coefficient η, cerebellum” value [3] was 0.92 and 0.92 ± 0.11.

`Cl.Sc1nnc(C2CCNCC2)o1` [6a, 5-Piperidin-4-yl-3H-[1,3,4]oxadiazol-2-thione Hydrochloride] was tested, and the “Potentiation of GABA-induced current” value (α3β3γ2 GABAA receptor [1]) was 114 ± 8%, the inhibition at 1000 µM (α1β2 wt GABAA receptor [6]; [11]) was over 90% and the “6a EC50 relative to wt” value (α1F64Cβ2 GABAA receptor [7]) was 0.6 fold. For the same molecule, the inhibition at 1000 µM (α1F64Cβ2 GABAA receptor [7]; [11]) was over 90%, the inhibition at 1000 µM (α1S68Cβ2 GABAA receptor) was over 90% and the “Inhibition of muscimol binding at 100 μM” value [2] was “at least 30%”. The “pseudo-Hill coefficient η, cortex” value [2] was 0.99 ± 0.09, the “pseudo-Hill coefficient η, cerebellum” value [3] was 1.03 ± 0.08 and the “Current induced by compound alone, %” value (α1β3γ2 GABAA receptor [4]) was “less than 10%”. The “Current induced by compound alone, %” value (α4β3γ2 GABAA receptor) was “less than 10%”.

With `Cl.NCc1nnc(S)o1` [6d, 5-Aminomethyl-3H-[1,3,4]oxadiazol-2-thione Hydrochloride] the “Inhibition of muscimol binding at 100 μM” value [2] was “at least 30%”, the “pseudo-Hill coefficient η, cortex” value [2] was 0.92 ± 0.05 and the “pseudo-Hill coefficient η, cerebellum” value [3] was 0.96 ± 0.12.

With `Oc1nnc(C2CCCCC2)o1` [9d, 5-Cyclohexyl-3H-[1,3,4]oxadiazole-2-one] the “Percent inhibition of [3H]muscimol binding, cerebellum, 100 μM” value ([3]; 100 μM test compound, well-washed rat cerebellum membranes, mean ± S.D.) was −11 ± 11 (3) %.

With `CS(=O)(=S)OCCNC(=O)CCCC[C@@H]1SC[C@@H]2NC(=O)N[C@@H]21` (stereo partly shown) [MTSEA-biotin] the “Inhibition of subsequent GABA test currents, MTSEA-biotin alone (control)” value (α1R66Cβ2 GABAA receptor; 30 μM MTSEA-biotin, α1R66Cβ2, n = 2) was 87% and 100%.

`CS(=O)(=O)SCCS(=O)(=O)O` [MTSES^−, 2-sulfonatoethyl methanethiosulfonate] was tested, and the “Effect of MTS reagent on the GABA current” value (α1β2 wt GABAA receptor [8]) was “did not affect the GABA current”, the “Reduction in subsequent GABA EC50 test currents, MTSES− alone (control)” value (α1F64Cβ2 GABAA receptor [9]; 12 s, 10 μM MTSES−, α1F64Cβ2) was 87% and 87 ± 3% and the “Inhibition of GABA EC50 currents after complete reaction with MTS reagent” value (α1F64Cβ2 GABAA receptor [9]; α1F64C + β2, % ± S.E.M.) was 89 ± 3 (4) %. The “Inhibition of subsequent GABA EC50 current, MTSES− alone (control)” value (α1R66Cβ2 GABAA receptor; 12 s, 2 mM MTSES−, α1R66Cβ2) was 91 ± 3%, the “Inhibition of GABA EC50 currents after complete reaction with MTS reagent” value (α1R66Cβ2 GABAA receptor; α1R66C + β2, % ± S.E.M.) was 62 ± 3 (4) % and the “Second-order reaction rate constant with the engineered cysteine” value (α1R66Cβ2 GABAA receptor; α1R66Cβ2) was 48 ± 7 M⁻¹ s⁻¹.

`Cc1nnc(C2CCNCC2)o1.Cl` [compound 19, 4-(5-Methyl-[1,3,4]oxadiazol-2-yl)-piperidine Hydrochloride] was tested, and the “Potentiation of GABA-induced current” value (α1β3γ2 GABAA receptor [10]) was 21%, the “Potentiation of GABA-induced current” value (α3β3γ2 GABAA receptor [1]) was 11% and the “Inhibition of muscimol binding at 100 μM” value [2] was “at least 30%”. The “pseudo-Hill coefficient η, cortex” value [2] was 0.88 ± 0.08, the “pseudo-Hill coefficient η, cerebellum” value [3] was 0.91 ± 0.05 and the “Current induced by compound alone, %” value (α1β3γ2 GABAA receptor [4]) was “less than 10%”. The “Current induced by compound alone, %” value (α3β3γ2 GABAA receptor [5]; 1 mM compound, α3β3γ2) was “less than 10%”, the “Current induced by compound alone, %” value (α4β3γ2 GABAA receptor) was “less than 10%” and the “Current induced by compound alone, %” value (α5β3γ2 GABAA receptor; 1 mM compound) was “less than 10%”.

Molecule `C=C(C)[C@@H]1[C@H]2OC(=O)[C@@H]1[C@]1(O)C[C@H]3O[C@]34C(=O)O[C@H]2[C@]14C` [picrotoxinin, reference compound] has an inhibition at 100 µM (α1β2 wt GABAA receptor [6]; read-out: Inhibition of 6a-induced currents) of 80 to 90%.
